A word on the IC50: it is the midpoint of a concentration-inhibition curve.

The species entered for the first assay is Homo sapiens. Nature of the assay: In vitro collagen induced platelet aggregation inhibitory activity using human platelet rich plasma anti-coagulated with 0.38% trisodium citrate. It counts as functional.
Conditions: not given
For the molecule `CC(C)(C(=O)N1CCC(CC(=O)O)CC1)C(NC(=O)c1ccc(C(=N)N)cc1)c1ccccc1` (stereo in doubt; 18), the IC50 was 0.19 µM.
Still for that read-out and setting: the value for `CC(C)(C(=O)N1CCC(CC(=O)O)CC1)C(NC(=O)c1ccc(C(=N)N)cc1)c1ccccc1` (single isomer, unassigned; (-)) was 31 µM; that for `CC(C)(C(=O)N1CCC(CC(=O)O)CC1)C(NC(=O)c1ccc(C(=N)N)cc1)c1ccccc1` (single isomer, unassigned; (+)) was 0.092 µM.

The assay is the same for the next values; noted with them: Homo sapiens, Plasma.
`CN(CCC(=O)N1CCC(CC(=O)O)CC1)C(=O)c1ccc(C(=N)N)cc1` yielded an IC50 of 6.5 µM.
On to `CC(C)C(C(=O)N1CCC(CC(=O)O)CC1)C(NC(=O)c1ccc(C(=N)N)cc1)c1ccccc1` (stereo not drawn), for which the IC50 came to 82 µM.
Same read-out and setting: the value for `CN(CC(=O)N1CCC(C(=O)O)CC1)C(=O)c1ccc(NC(=N)N)cc1` was 100 µM; that for `C[C@H](NC(=O)c1ccc(C(=N)N)cc1)C(=O)N1CCC(CC(=O)O)CC1` was 30 µM; that for `N=C(N)c1ccc(C(=O)N2CCCC2CC(=O)N2CCC(CC(=O)O)CC2)cc1` (stereo not drawn) was 4.3 µM.
Same read-out and setting: the value for `CN(CC(=O)N1CCC(CC(=O)O)CC1)C(=O)c1ccc(NC(=N)N)cc1` was 750 µM; that for `CN(CC(=O)N1CCC(C(=O)O)CC1)C(=O)c1ccc(CN=C(N)N)cc1` was 53 µM; that for `N=C(N)c1ccc(C(=O)NCC(Cc2ccccc2)C(=O)N2CCC(CC(=O)O)CC2)cc1` (stereo not drawn) was 4.1 µM.
Still for that read-out and setting: the value for `CC(C)C(CNC(=O)c1ccc(C(=N)N)cc1)C(=O)N1CCC(CC(=O)O)CC1` (stereo not drawn) was 25 µM; that for `N=C(N)Nc1ccc(C(=O)NCCC(=O)N2CCC(C(=O)O)CC2)cc1` was 750 µM; that for `CC(C)[C@@H](CC(=O)N1CCC(CC(=O)O)CC1)NC(=O)c1ccc(C(=N)N)cc1` was 9.2 µM.
`CCC(C(=O)N1CCC(CC(=O)O)CC1)C(NC(=O)c1ccc(C(=N)N)cc1)c1ccccc1` (stereo not drawn) gave a concentration for half-maximal inhibition (IC50) of 16 µM.
For the molecule `CC(CNC(=O)c1ccc(C(=N)N)cc1)C(=O)N1CCC(CC(=O)O)CC1` (stereo not drawn), half-maximal inhibition (IC50) required 0.59 µM.
The same measure, in the same setting: the value for `C[C@H](NC(=O)c1ccc(CN=C(N)N)cc1)C(=O)N1CCC(C(=O)O)CC1` was 710 µM.
Regarding `N=C(N)c1ccc(C(=O)N[C@@H](CC(=O)N2CCC(CC(=O)O)CC2)C(=O)OC2CCCCC2)cc1`, inhibition was half-maximal at 1.9 µM (IC50).
For `CN(CC(=O)N1CCC(CC(=O)O)CC1)C(=O)c1ccc(CN=C(N)N)cc1`, the IC50 was > 1000 µM.
Same read-out and setting: the value for `CN(CC(=O)N1CCC(C(=O)O)CC1)C(=O)c1ccc(C(=N)N)cc1` was 330 µM; that for `N=C(N)c1ccc(C(=O)N[C@H](CC(=O)N2CCC(CC(=O)O)CC2)c2ccccc2)cc1` was 5.2 µM.
The same measure, in the same setting: the value for `N=C(N)c1ccc(C(=O)NCC(Cc2ccc(O)cc2)C(=O)N2CCC(CC(=O)O)CC2)cc1` (stereo not drawn) was 0.94 µM.
The same measure, in the same setting: the value for `N=C(N)c1ccc(C(=O)N[C@@H](CC(=O)N2CCC(CC(=O)O)CC2)C(=O)Oc2ccccc2)cc1` was 4.1 µM.
As to `N=C(N)c1ccc(C(=O)N2CCCC(C(=O)N3CCC(CC(=O)O)CC3)C2)cc1` (stereo not drawn), 25 µM corresponded to half-maximal inhibition (IC50).
Same read-out and setting: the value for `C[C@H](NC(=O)c1ccc(NC(=N)N)cc1)C(=O)N1CCC(C(=O)O)CC1` was > 1000 µM.
As for `N=C(N)c1ccc(C(=O)NCCC(=O)N2CCC(C(=O)O)CC2)cc1`, half-maximal inhibition (IC50) was put at 33 µM.
On the same count and under the same terms, the value for `C[C@@H](CC(=O)N1CCC(CC(=O)O)CC1)NC(=O)c1ccc(C(=N)N)cc1` was 5 µM; that for `C[C@H](NC(=O)c1ccc(C(=N)N)cc1)C(=O)N1CCC(C(=O)O)CC1` was 110 µM; that for `CN(CC(=O)N1CCC(CC(=O)O)CC1)C(=O)c1ccc(C(=N)N)cc1` was 7.5 µM.
On to `CC(C)(CNC(=O)c1ccc(C(=N)N)cc1)C(=O)N1CCC(CC(=O)O)CC1`, for which the IC50 stood at 0.57 µM.
Same read-out and setting: the value for `N=C(N)NCc1ccc(C(=O)NCCC(=O)N2CCC(C(=O)O)CC2)cc1` was > 1000 µM; that for `N=C(N)c1ccc(C(=O)NCCC(=O)N2CCC(OCC(=O)O)CC2)cc1` was 18 µM; that for `CCCCC(CNC(=O)c1ccc(C(=N)N)cc1)C(=O)N1CCC(CC(=O)O)CC1` (stereo not drawn) was 3.8 µM.

Source of the values: ChEMBL document CHEMBL1130565, “Development of the new potent non-peptide gpIIb/IIIa antagonist NSL-95301 by utilizing combinatorial technique” (Bioorg Med Chem Lett, 1997).
